The text below walks through data of ChEMBL document CHEMBL3832087, “DailyMed|setid=a60f39f6-d590-4b00-8751-7f12b7ec5385 | ZAFIRLUKAST- zafirlukast tablet, film coated|American Health Packaging”.

Common to all, as to assay type: ADME, organism-based
Data set [1] relates to Homo sapiens. The data set is described as follows: (§1) Evaluation of pharmacokinetic parameters for Zafirlukast following single oral administration to healthy boys and girls. Set-up: dose 20 mg, route oral. The following applies: in vivo, po, dosed compound id 45, dosed compound name ZAFIRLUKAST, regimen Single dose, tissue Plasma; for CL/F / Tmax: dose 20 mg.
Data set [2] can be described thus: as §1. As to conditions: both, human, in vivo, dose 20 mg, dosed compound id 45, dosed compound name ZAFIRLUKAST, regimen Single dose, route oral, tissue Plasma. Set-up: dose 20 mg, route oral.
In data set [3] the test system is Homo sapiens. The data set is described as follows: (§2) Evaluation of pharmacokinetic parameters for Zafirlukast following oral administration of Zafirlukast tablets in subjects of varying health status. As to conditions: in vivo, po, dosed compound id 45, dosed compound name ZAFIRLUKAST, gender male and female, tissue Plasma.
Data set [4] in a line: as §2. The following applies: human, dosed compound id 45, dosed compound name ZAFIRLUKAST, tissue Plasma.

SMILES strings stand for the structures. Where “and” joins values, the source holds several entries; their conditions need not be identical. Identical values can stand only once.

As usually defined, the CL/F is clearance divided by bioavailability, as obtained after extravascular dosing. As usually defined, the Tmax is the time from dosing to the highest level. For orientation: AUC means concentration integrated over time. Lower therefore signals low exposure. The term Cmax denotes the maximum level reached in the sampled fluid or tissue. For orientation: half-life means how long it takes for the measured level to halve. High values mean slow loss, low ones fast loss. With `COc1cc(C(=O)NS(=O)(=O)c2ccccc2C)ccc1Cc1cn(C)c2ccc(NC(=O)OC3CCCC3)cc12` [ZAFIRLUKAST], the CL/F is 9.2 L/h and 11.4 L/h in data set [1] (gender male and female); 19.4 L/h in data set [1] (gender male). The time to peak (Tmax) is 2.5 h in data set [1] (gender male and female); 2 h in data set [1] (gender male); 2.1 h in data set [2] (gender male and female); 3 h in data set [4] (in vivo). The AUC is 2458 ng·h/mL and 2027 ng·h/mL in data set [1] (gender male and female); 1137 ng·h/mL in data set [1] (gender male). Further, the peak concentration (Cmax) in data set [1] (gender male and female) was 756 ng/mL and 601 ng/mL; in data set [1] (gender male), 326 ng/mL. The half-life in data set [2] is 13.3 h; in data set [4] (in vivo, gender male and female), 10 h. In addition, the t1/2 in data set [3] was 8 h and 16 h and 10 h. Besides, the fraction unbound in data set [4] (read-out: Protein binding) was determined as 0.01. In addition, the Vd/F in data set [4] (in vivo, read-out: Vss/F) was 70 L.
